≈ marks a conversion by molar mass, not a printed value. Where two headings read alike, the source gives them in different places.
Experiments:
[1] = Maximum solubility in water; format: physicochemical; details: water at 25° C.; read-out: maximum level of solubility in water
Description: (§1) The cystathionine was added at its maximum level of solubility in water at 25° C., i.e. 0.6 mg/mL of water. The mixture was treated at 121° C. for 15 minutes in an autoclave and was analyzed.

[2] = Stability under THA sterilization conditions (140° C.-15″), 43 mM in SONDALIS; format: physicochemical; details: THA sterilization 140° C.-15″
Description: Stability Under THA Sterilization Conditions (140° C.-15''), at High Concentration (43 mM) in […] […] The THA conditions therefore conventionally induce much less degradation than those described above, but slightly more than industrial UHT conditions. The high concentration (43 mM) was chosen because it falls within the average of that which may be recommended in enteral nutrition products. Under these conditions, the losses of cysteine are lower than for the harsh sterilization conditions (121° C.-15') but remain much too high (27%) for use in a nutrition product.

glutathione status = assay: Physiological effectiveness: diet supplementation in infected rats (sepsis), glutathione concentration; format: in vivo; details: standard protein diet supplemented with cystathionine, compared with cysteine positive control group
Text: Groups of sick rats receiving differentiated diets are compared with regard to the glutathione concentration in various organs but especially in the liver. The liver is in fact the major organ for regulating glutathione synthesis in terms of the whole body. The compared groups received a standard protein diet supplemented either with an amino acid considered to be neutral with respect to glutathione (alanine) (control group), or with cysteine (positive control group), or with cystathionine (test group). A group of animals which are not sick is also realized (normal group).

[3] = format: physicochemical; details: for L-cystathionine (3 mM) Evaluated loss / L-cysteine (3 mM) Evaluated loss / L-cysteine (3 mM) Free cysteine / L-cysteine (3 mM) Oxidized cysteine: 121° C. for 15 minutes in an autoclave
Description: (§2) The stability of the cystathionine compared to that of cysteine was tested with deionized water and in various liquid enteral formulae (SONDALIS and REABILAN). REABILAN and SONDALIS (registered trademarks) are different enteral compositions comprising 35% of energy in the form of lipids, 50-52.5% in the form of carbohydrates, in particular of maltodextrins and starches, 12.5-15% in the form of peptides or proteins, and also comprising vitamins, mineral salts and other compounds such as taurine or L-camitine.
Stability Under Harsh Sterilization Conditions (121° C.-15 min) at 3 mM Concentration
Unlike cysteine, the cystathionine is found to be very stable.
In the enteral formulae, and after heat treatment, the amount of available cysteine decreases very substantially, and the relative loss of cysteine increases when the amount added decreases.

[4] = tested on: hepatic glutathione status; details: rats with sepsis, diet supplemented with cysteine; cited from earlier work
[5] = Stability in water, autoclave 121° C. for 15 minutes; format: physicochemical; details: after 121° C. for 15 minutes
Description: as §2, §1
In water, cystathionine is very stable, even after treatment at 121° C. for 15 minutes, since the degree of recovery is 100%, and the cysteine is slightly oxidized to cystine (6%).

SMILES | solubility [1] [µg/mL] | L-cystathionine (43 mM) Evaluated loss [2] [%] | L-cystathionine (43 mM) Non-degraded form [2] [%] | L-cystathionine (43 mM) Evaluated loss ([2]; listed as cystathionine) | glutathione concentration (glutathione status) | stability in the enteral formulae before heat treatment [3] | L-cystathionine (3 mM) Evaluated loss ([3]; REABILAN) [%] | L-cystathionine (3 mM) Evaluated loss ([3]; SONDALIS) [%] | L-cysteine (43 mM) Evaluated loss [2] [%] | L-cysteine (43 mM) Free cysteine [2] [%] | L-cysteine (43 mM) Oxidized cysteine [2] [%] | L-cysteine (43 mM) Evaluated loss ([2]; listed as cysteine) [%] | hepatic glutathione status [4] | oxidized to cystine [5] [%] | L-cysteine (3 mM) Evaluated loss ([3]; REABILAN) [%] | L-cysteine (3 mM) Free cysteine ([3]; REABILAN) [%] | L-cysteine (3 mM) Oxidized cysteine ([3]; REABILAN) [%] | L-cysteine (3 mM) Evaluated loss ([3]; SONDALIS) [%] | L-cysteine (3 mM) Free cysteine ([3]; SONDALIS) [%] | L-cysteine (3 mM) Oxidized cysteine ([3]; SONDALIS) [%]
N[C@@H](CCSC[C@H](N)C(=O)O)C(=O)O [L-cystathionine, cystathionine] | 600 (≈ 2700 µM) | 4 | 96 | at the limit of reproducibility of the assaying method | level equivalent to that of the positive control group | very stable | 0 | 17 | – | – | – | – | – | – | – | – | – | – | – | –
N[C@@H](CS)C(=O)O [L-cysteine, cysteine] | – | – | – | – | – | relatively unstable | – | – | 27 | 66 | 7 | 27 | re-establish hepatic glutathione status at the level of a normal animal | 6 | 83 | 12 | 5 | 86 | 11 | 3

Reference: US20050064014A1, “Use of cystathionine” (priority 2001, published 2005)
